Assay results published in ChEMBL document CHEMBL4673219, “Novel 5,6-disubstituted pyrrolo[2,3-d]pyrimidine derivatives as broad spectrum antiproliferative agents: Synthesis, cell based assays, kinase profile and molecular docking study” (Bioorg Med Chem, 2018).
Where “and” joins values, the source holds several entries; their conditions need not be identical. Equal entries are not always repeated.

Key:
Type in all cases: functional
[1] = system: OVCAR-4; assay: Growth inhibition of human OVCAR-4 cells assessed as growth percentage at 10 uM incubated for 48 hrs by sulforhodamine B assay relative to control; conditions: read-out: Activity
[2] = system: Malme-3M; assay: Growth inhibition of human Malme-3M cells assessed as growth percentage at 10 uM incubated for 48 hrs by sulforhodamine B assay relative to control; conditions: read-out: Activity
[3] = system: SNB-19; assay: Growth inhibition of human SNB-19 cells assessed as growth percentage at 10 uM incubated for 48 hrs by sulforhodamine B assay relative to control; conditions: read-out: Activity
[4] = system: SF-539; assay: Growth inhibition of human SF-539 cells assessed as growth percentage at 10 uM incubated for 48 hrs by sulforhodamine B assay relative to control; conditions: read-out: Activity
[5] = system: NCI-H226; assay: Growth inhibition of human NCI-H226 cells assessed as growth percentage at 10 uM incubated for 48 hrs by sulforhodamine B assay relative to control; conditions: read-out: Activity
[6] = system: HOP-62; assay: Growth inhibition of human HOP-62 cells assessed as growth percentage at 10 uM incubated for 48 hrs by sulforhodamine B assay relative to control; conditions: read-out: Activity
[7] = system: HL-60(TB); assay: Growth inhibition of human HL-60(TB) cells assessed as growth percentage at 10 uM incubated for 48 hrs by sulforhodamine B assay relative to control; conditions: read-out: Activity
[8] = system: BT-549; assay: Growth inhibition of human BT-549 cells incubated for 48 hrs by sulforhodamine B assay
[9] = system: TK-10; assay: Growth inhibition of human TK-10 cells incubated for 48 hrs by sulforhodamine B assay; conditions: for GI50 / TGI: TK-10
[10] = system: SK-OV-3; assay: Growth inhibition of human SK-OV-3 cells incubated for 48 hrs by sulforhodamine B assay; conditions: for GI50: SK-OV-3
[11] = system: KM12; assay: Growth inhibition of human KM12 cells incubated for 48 hrs by sulforhodamine B assay; conditions: for TGI: KM12
[12] = system: HCT-15; assay: Growth inhibition of human HCT-15 cells incubated for 48 hrs by sulforhodamine B assay; conditions: for TGI: HCT-15
[13] = system: MOLT-4; assay: Growth inhibition of human MOLT-4 cells incubated for 48 hrs by sulforhodamine B assay
[14] = system: DU-145; assay: Growth inhibition of human DU-145 cells assessed as growth percentage at 100 uM incubated for 48 hrs by sulforhodamine B assay relative to control; conditions: read-out: Activity
[15] = system: OVCAR-4; assay: Growth inhibition of human OVCAR-4 cells assessed as growth percentage at 100 uM incubated for 48 hrs by sulforhodamine B assay relative to control; conditions: read-out: Activity
[16] = system: SF-295; assay: Growth inhibition of human SF-295 cells assessed as growth percentage at 100 uM incubated for 48 hrs by sulforhodamine B assay relative to control; conditions: read-out: Activity
[17] = system: HT-29; assay: Growth inhibition of human HT-29 cells assessed as growth percentage at 100 uM incubated for 48 hrs by sulforhodamine B assay relative to control; conditions: read-out: Activity
[18] = system: NCI-H460; assay: Growth inhibition of human NCI-H460 cells assessed as growth percentage at 100 uM incubated for 48 hrs by sulforhodamine B assay relative to control; conditions: read-out: Activity
[19] = system: NCI-H322M; assay: Growth inhibition of human NCI-H322M cells assessed as growth percentage at 100 uM incubated for 48 hrs by sulforhodamine B assay relative to control; conditions: read-out: Activity
[20] = system: HOP-62; assay: Growth inhibition of human HOP-62 cells assessed as growth percentage at 100 uM incubated for 48 hrs by sulforhodamine B assay relative to control; conditions: read-out: Activity
[21] = system: NCI/ADR-RES; assay: Growth inhibition of human NCI/ADR-RES cells assessed as growth percentage at 1 uM incubated for 48 hrs by sulforhodamine B assay relative to control; conditions: read-out: Activity
[22] = system: M14; assay: Growth inhibition of human M14 cells assessed as growth percentage at 1 uM incubated for 48 hrs by sulforhodamine B assay relative to control; conditions: read-out: Activity
[23] = system: SNB-19; assay: Growth inhibition of human SNB-19 cells assessed as growth percentage at 1 uM incubated for 48 hrs by sulforhodamine B assay relative to control; conditions: read-out: Activity
[24] = system: HCT-116; assay: Growth inhibition of human HCT-116 cells assessed as growth percentage at 1 uM incubated for 48 hrs by sulforhodamine B assay relative to control; conditions: read-out: Activity
[25] = system: RPMI-8226; assay: Growth inhibition of human RPMI-8226 cells assessed as growth percentage at 1 uM incubated for 48 hrs by sulforhodamine B assay relative to control; conditions: read-out: Activity
[26] = system: NCI/ADR-RES; assay: Growth inhibition of human NCI/ADR-RES cells assessed as growth percentage at 0.1 uM incubated for 48 hrs by sulforhodamine B assay relative to control; conditions: read-out: Activity
[27] = system: HCT-116; assay: Growth inhibition of human HCT-116 cells assessed as growth percentage at 0.1 uM incubated for 48 hrs by sulforhodamine B assay relative to control; conditions: read-out: Activity
[28] = system: HOP-62; assay: Growth inhibition of human HOP-62 cells assessed as growth percentage at 0.1 uM incubated for 48 hrs by sulforhodamine B assay relative to control; conditions: read-out: Activity
[29] = system: MDA-MB-231; assay: Growth inhibition of human MDA-MB-231/ATCC cells assessed as growth percentage at 0.01 uM incubated for 48 hrs by sulforhodamine B assay relative to control; conditions: read-out: Activity
[30] = system: MDA-MB-435; assay: Growth inhibition of human MDA-MB-435 cells assessed as growth percentage at 0.01 uM incubated for 48 hrs by sulforhodamine B assay relative to control; conditions: read-out: Activity
[31] = system: HT-29; assay: Growth inhibition of human HT-29 cells assessed as growth percentage at 0.01 uM incubated for 48 hrs by sulforhodamine B assay relative to control; conditions: read-out: Activity
[32] = system: NCI-H23; assay: Growth inhibition of human NCI-H23 cells assessed as growth percentage at 0.01 uM incubated for 48 hrs by sulforhodamine B assay relative to control; conditions: read-out: Activity
[33] = system: NCI-H226; assay: Growth inhibition of human NCI-H226 cells assessed as growth percentage at 0.01 uM incubated for 48 hrs by sulforhodamine B assay relative to control; conditions: read-out: Activity
[34] = system: HOP-62; assay: Growth inhibition of human HOP-62 cells assessed as growth percentage at 0.01 uM incubated for 48 hrs by sulforhodamine B assay relative to control; conditions: read-out: Activity
[35] = system: A549; assay: Growth inhibition of human A549/ATCC cells assessed as growth percentage at 0.01 uM incubated for 48 hrs by sulforhodamine B assay relative to control; conditions: read-out: Activity
[36] = system: SR; assay: Growth inhibition of human SR cells assessed as growth percentage at 0.01 uM incubated for 48 hrs by sulforhodamine B assay relative to control; conditions: read-out: Activity
[37] = system: MOLT-4; assay: Growth inhibition of human MOLT-4 cells assessed as growth percentage at 0.01 uM incubated for 48 hrs by sulforhodamine B assay relative to control; conditions: read-out: Activity
[38] = system: K562; assay: Growth inhibition of human K562 cells assessed as growth percentage at 0.01 uM incubated for 48 hrs by sulforhodamine B assay relative to control; conditions: read-out: Activity

CCCCCCCC(=O)Nc1nc2[nH]c(CN3CCN(Cc4cccc(F)c4)CC3)c(CN3CCN(Cc4cccc(F)c4)CC3)c2c(=O)[nH]1
growth at 10 µM [1]: -94%
growth at 10 µM [2]: -83.1%
growth at 10 µM [3]: -81.6%
growth at 10 µM [4]: -96.9%
growth at 10 µM [5]: 87.6%
growth at 10 µM [6]: -93.2%
growth at 10 µM [7]: -60.1%
GI50 [8]: 1.53 µM
TGI [8]: 2.92 µM
CC50 ([8]; read-out: LC50 (the source's name)): 5.58 µM
GI50 [9]: 1.74 µM
TGI [9]: 3.26 µM
CC50 ([9]; TK-10, 48 h, read-out: LC50 (the source's name)): 6.11 µM
GI50 ([10]; Homo sapiens): 1.9 µM
LC50 ([10]; Homo sapiens, SK-OV-3, 48 h): 5.86 µM
TGI ([10]; Homo sapiens, SK-OV-3, 48 h): 3.33 µM
GI50 ([11]; 48 h): 0.72 µM
TGI ([11]; Homo sapiens): 2.38 µM
GI50 ([11]; Homo sapiens, KM12, 48 h): 0.719 µM
GI50 ([12]; 48 h): 0.3 µM
TGI ([12]; Homo sapiens): 1.01 µM
GI50 ([12]; Homo sapiens, HCT-15, 48 h): 0.295 µM
CC50 ([12]; Homo sapiens, HCT-15, read-out: LC50 (the source's name)): 3.75 µM
GI50 ([13]; 48 h): 0.26 µM
LC50 (concentration killing 50% of cells) ([13]; 48 h): > 100 µM
TGI ([13]; 48 h): 0.74 µM
GI50 ([13]; Homo sapiens, MOLT-4, 48 h): 0.258 µM
LC50 (concentration killing 50% of cells) ([13]; Homo sapiens, MOLT-4, 48 h): 100 µM
TGI ([13]; Homo sapiens, MOLT-4, 48 h): 0.736 µM
growth at 100 µM [14]: -83%
growth at 100 µM [15]: -91%
growth at 100 µM [16]: -81%
growth at 100 µM [17]: -68%
growth at 100 µM [18]: -85%
growth at 100 µM [19]: -82%
growth at 100 µM [20]: -95%
growth at 1 µM [21]: 79%
growth at 1 µM [22]: -47%
growth at 1 µM [23]: 82%
growth at 1 µM [24]: -91%
growth at 1 µM [25]: 13%
growth at 0.1 µM [26]: 95%
growth at 0.1 µM [27]: 93%
growth at 0.1 µM [28]: 95%
growth at 0.01 µM [29]: 105%
growth at 0.01 µM [30]: 99%
growth at 0.01 µM [31]: 96%
growth at 0.01 µM [32]: 98%
growth at 0.01 µM [33]: 94%
growth at 0.01 µM [34]: 99%
growth at 0.01 µM [35]: 98%
growth at 0.01 µM [36]: 92%
growth at 0.01 µM [37]: 95%
growth at 0.01 µM [38]: 102%

Nc1nc2[nH]c(CN3CCN(c4cc(Cl)cc(Cl)c4)CC3)c(CN3CCN(c4cc(Cl)cc(Cl)c4)CC3)c2c(=O)[nH]1
growth at 10 µM [1]: 65.8%
growth at 10 µM [2]: 74.3%
growth at 10 µM [3]: 79.8%
growth at 10 µM [4]: 84.5%
growth at 10 µM [5]: 96.5%
growth at 10 µM [6]: 84.2%
growth at 10 µM [7]: 24.4%
GI50 [8]: 1.72 µM
TGI [8]: 3.76 µM
GI50 [9]: 1.8 µM
TGI [9]: 3.26 µM
TGI ([10]; 48 h): 17.5 µM and 1.75 µM
GI50 ([10]; Homo sapiens): 4.62 µM
TGI ([11]; Homo sapiens): 3.42 µM
GI50 ([11]; Homo sapiens, KM12, 48 h): 1.83 µM
CC50 ([11]; Homo sapiens, KM12, read-out: LC50 (the source's name)): 6.38 µM
TGI ([12]; Homo sapiens): 4.05 µM
GI50 ([12]; Homo sapiens, HCT-15, 48 h): 1.93 µM
GI50 ([13]; Homo sapiens, MOLT-4, 48 h): 2.58 µM
TGI ([13]; Homo sapiens, MOLT-4, 48 h): 8.56 µM
growth at 100 µM [14]: -92%
growth at 100 µM [15]: -82%
growth at 100 µM [16]: -33%
growth at 100 µM [17]: -70%
growth at 100 µM [18]: -58%
growth at 100 µM [19]: -54%
growth at 100 µM [20]: -38%
growth at 1 µM [21]: 102%
growth at 1 µM [22]: 94%
growth at 1 µM [23]: 89%
growth at 1 µM [24]: 87%
growth at 1 µM [25]: 92%
growth at 0.1 µM [26]: 97%
growth at 0.1 µM [27]: 99%
growth at 0.1 µM [28]: 99%
growth at 0.01 µM [29]: 106%
growth at 0.01 µM [30]: 89%
growth at 0.01 µM [31]: 105%
growth at 0.01 µM [32]: 104%
growth at 0.01 µM [33]: 95%
growth at 0.01 µM [34]: 81%
growth at 0.01 µM [35]: 97%
growth at 0.01 µM [36]: 102%
growth at 0.01 µM [37]: 100%
growth at 0.01 µM [38]: 108%
